Literature values, collected in patent US20080064694A1, “Multi-Phase Release Methscopolamine Compositions” (Auriga Laboratories, Inc., priority 2006, published 2008).
“Also recorded” adds a separate entry of the source.

Conditions: following administration of methscopolamine bromide

Q: Which adverse reactions observed does the source give for “[7(S)-( 1α, 2β, 4β, 5α, 7β)]-7-(3-hydroxy-1oxo-2-phenylpropoxy)-9,9-dimethyl-3-Oxo-9-azoniatricyclo[3.3.1.0]nonane [Methscopolamine bromide]” here?
A: The adverse reactions observed was “Tachycardia, palpitation; also recorded: Severe allergic reaction or drug idiosyncrasies including anaphylaxis; also recorded: Headaches, nervousness, mental confusion, drowsiness, dizziness; also recorded: Blurred vision, dilation of the pupil, cycloplegia, increased ocular tension, loss of taste; also recorded: Urinary hesitancy and retention; also recorded: Nausea, vomiting, constipation, bloated feeling; also recorded: Decreased sweating, urticaria and other dermal manifestations; also recorded: Xerostomia, weakness, insomnia, impotence, suppression of lactation”.
